Activity calls are given as the source filed them. No cut-off for these calls is given here.
Assays:
[1] = target: T1, Peptidyl-prolyl cis-trans isomerase FKBP5 (Homo sapiens) (UniProt Q13451); test: Binding affinity to 15N-labeled FKBP51 (1 to 140 residues) (unknown origin) expressed in Escherichia coli OD2N assessed as induction of chemical shift perturbations by two-dimensional 1H/15N HSQC NMR spectroscopy
T1 sequence (whole entry): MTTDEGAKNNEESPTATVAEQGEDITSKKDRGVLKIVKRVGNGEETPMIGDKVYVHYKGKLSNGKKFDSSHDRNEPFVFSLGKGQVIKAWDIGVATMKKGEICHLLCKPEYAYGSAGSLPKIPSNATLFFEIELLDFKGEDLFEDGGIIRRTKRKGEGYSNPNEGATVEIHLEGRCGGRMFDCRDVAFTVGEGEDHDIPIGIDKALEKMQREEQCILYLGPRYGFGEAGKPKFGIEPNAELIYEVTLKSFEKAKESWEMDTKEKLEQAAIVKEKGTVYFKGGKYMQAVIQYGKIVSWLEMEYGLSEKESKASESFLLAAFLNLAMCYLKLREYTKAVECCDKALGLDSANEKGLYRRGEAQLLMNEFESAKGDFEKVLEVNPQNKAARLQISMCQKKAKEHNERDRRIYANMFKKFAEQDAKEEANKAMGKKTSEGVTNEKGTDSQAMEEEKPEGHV

[2] = target: T1, Peptidyl-prolyl cis-trans isomerase FKBP5 (Homo sapiens); test: Binding affinity to 15N-labeled FKBP51 (1 to 140 residues) (unknown origin) expressed in Escherichia coli OD2N assessed as induction of chemical shift perturbations at Ile87 residues by two-dimensional 1H/15N HSQC NMR spectroscopy
[3] = target: T2, Peptidyl-prolyl cis-trans isomerase FKBP5 (Homo sapiens, UniProt Q13451); test: Binding affinity to 15N-labeled FKBP51 (1 to 140 residues) (unknown origin) expressed in Escherichia coli OD2N by two-dimensional 1H/15N HSQC NMR spectroscopy
T2 sequence (Q13451 whole entry): T1 sequence (whole entry)

[4] = target: T1, Peptidyl-prolyl cis-trans isomerase FKBP5 (Homo sapiens); test: Binding affinity to 15N-labeled FKBP51 (1 to 140 residues) (unknown origin) expressed in Escherichia coli OD2N assessed as induction of chemical shift perturbations at Leu81, Gly82, Gln85, Ile87, Ala89, Trp90, Asp91, Met97, and Glu110 residues by two-dimensional 1H/15N HSQC NMR spectroscopy

SMILES | Activity [1] | Activity [2] | Kd [3] | Activity [4]
NC(=O)c1cccnc1 | inactive | – | – | –
Cc1c[nH]cn1 | – | Active | 2900 µM | –
Oc1ccccn1 | – | Active | 1300 µM | –
O=C1CNC(=O)N1 | inactive | – | – | –
c1c[nH]cn1 [IMIDAZOLE] | – | Active | 4400 µM | –
O=C1CCCCN1 | – | – | 2800 µM | Active

From ChEMBL document CHEMBL4602734, “Hybrid Screening Approach for Very Small Fragments: X-ray and Computational Screening on FKBP51” (J Med Chem, 2020)
